Assay results from publication PMC4671274 (Molecular microbiology, 2015).

Target: Rv0888 (SpmT) (Mycobacterium tuberculosis, UniProt P9WKQ1)
Sequence (P9WKQ1 32-490 limits assumed): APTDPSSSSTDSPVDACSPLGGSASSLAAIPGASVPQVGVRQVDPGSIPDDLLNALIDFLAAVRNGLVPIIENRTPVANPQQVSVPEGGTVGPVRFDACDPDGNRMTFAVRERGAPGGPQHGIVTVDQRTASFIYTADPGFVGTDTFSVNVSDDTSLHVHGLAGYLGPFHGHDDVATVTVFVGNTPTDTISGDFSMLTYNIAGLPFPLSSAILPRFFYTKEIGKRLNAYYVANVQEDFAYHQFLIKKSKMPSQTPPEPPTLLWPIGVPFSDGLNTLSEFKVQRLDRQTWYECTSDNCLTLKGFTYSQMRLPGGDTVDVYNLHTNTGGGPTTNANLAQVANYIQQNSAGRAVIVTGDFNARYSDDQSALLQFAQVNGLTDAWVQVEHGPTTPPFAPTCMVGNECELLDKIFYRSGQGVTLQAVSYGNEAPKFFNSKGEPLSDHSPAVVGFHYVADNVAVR

sphingomyelin
Km: 671 µM
